A short description of data set [1]: Tensile stress test of tablets. In kind it is physicochemical. The method, then:
Hardness testing was performed immediately after tableting using a Pharma Test hardness tester. Each compaction force was tested in triplicate. Tensile strength was calculated according to the Equation 1 where F is the load required to fracture the tablet, D the table diameter and H the tablet height: Tensile strength=2F/πDH Equation 1: […]

For data set [2] the following is noted: cited from earlier work.
The format of data set [3] is physicochemical. The method, then:
The product was recovered by filtration and dried in air.
Powder X-ray diffraction (PXRD): X-ray powder diffraction (XRPD) patterns were collected in Bragg-Brentano geometry on a PANalytical Empyrean diffractometer equipped with a sealed tube (Cu Kα12, λ=1.5418 Å) an 1D X'Celerator detector between 4 and 40° 2θ.

Data set [4] is classed as physicochemical. The method, then:
Stability testing: Accelerated stability testing was conducted by taking 100 mg of powdered sample and placing it into a humidity chamber under 75% relative humidity at 40° C. for 14 days. The samples were analysed before and after testing by PXRD, FT-IR, DSC and TGA.
The source holds these as a separate data set.

Data set [5] is classed as physicochemical. Conditions: intrinsic dissolution of compacts, 37° C., relative to pure LAM.
Procedure: These compacts were each coated with paraffin wax, leaving one surface exposed and secured to the bottom of the dissolution apparatus with excess paraffin wax. Intrinsic solubility was determined using a 900 ml well filled with 900 ml of degassed, deionised water (or 0.1 M HCl solution) on a Pharma Test USP type II system. The solution had been previously equilibrated at 37° C. and the paddle speed was set to 100 rpm after adding the samples. Aliquots of media were withdrawn at 5, 10, 15, 20 30 and 60 minutes (or 0.25, 0.5, 1, 3, 6, 12 and 24 hours), filtered through 0.45 μm PTFE filters and tested via a UV spectrometer in triplicate.
UV-Vis absorbance measurements were carried on a Cary 60 UV-Vis spectrometer using 1 ml quartz cuvettes.
Another data set in a line: Thermal analysis (TGA). Conditions: 10° C./min, nitrogen. In kind it is physicochemical. The method, then: Thermal Analysis: Thermogravimetric analysis (TGA) was performed using a TA Instruments TGA-Q50 on at a constant rate of 10° C./min from 25° C. to 350° C. under a flux of nitrogen of 50 ml/min. Differential Scanning Calorimetry (DSC) was carried out using sealed aluminium pans on a TA instruments DSC-Q2000 differential scanning calorimeter. Temperature calibrations were made using indium as the standard. An empty pan, sealed in the same way as the sample, was used as a reference. All the thermograms were run at a heating/cooling rate of 10° C./min under a nitrogen purge at a rate of 50 ml/min.

As to `Nc1nnc(-c2cccc(Cl)c2Cl)c(N)n1` [LAM, lamotrigine], the “tablet hardness / tensile strength” value in data set [1] (tablets obtained with a compaction weight lower than 400 kg) was “too brittle to enable hardness testing”. The half-life result in data set [2] (in vivo) is “rather short half-life”. In addition, the oral bioavailability in data set [2] (orally) is 90%.
On to “lamotrigine:valproic acid (1:2) ionic cocrystal [LAMVAL]”, for which the “stability as a slurry in water (PXRD)” value in data set [3] is recorded as “stable as a slurry in water”. The “tensile strength compared with LAM” value in data set [1] (across a range of compaction forces) was “significantly greater tensile strength”. Further, in data set [4], the “crystallinity after accelerated stability test (PXRD)” value is “remains crystalline”; the “product degradation after accelerated stability test (FT-IR and DSC)” value was “no sign of product degradation”. In addition, in data set [5], the “intrinsic dissolution, faster than pure LAM” value came to 2 ×. Moreover, the “thermally stable up to (thermogravimetric analysis)” value in the data set “Thermal analysis (TGA)” was “around 100 °C”.
